Experimental data reported in patent US20160221944A1, “PYRROLIDINE DERIVATIVES AS OXYTOCIN/VASOPRESSIN V1a RECEPTORS ANTAGONISTS” (ObsEva S.A., priority 2013, published 2016).

What was measured:
[1] = target: vasopressin V1a receptor (Homo sapiens, UniProt P37288); assay: Binding to vasopressin V1a receptor; details: read-out: inhibition constant Ki to the vasopressin V1a receptor
[2] = In vivo stability: isomeric interconversion after single oral and intravenous doses in rats; parameters: species or system rat; details: female rats
Description: The animals used in this study were Sprague-Dawley, Crl: CD®BR albino rats. All animals were supplied by Charles River UK Ltd (Margate, Kent, UK). Animals were in the weight range 200-260 g and were approximately 2 months old. Rats were given a unique identity number and were identified by unique tail markings plus cage location.
The dose groups were as follows: 4 female were given an oral dose and 4 female were given an intravenous dose.
(§1) Dose formulations were prepared in an appropriate matrix; intravenous doses were prepared in NP3S, whilst oral doses were prepared in Labrasol:water (1:1 v/v).

[3] = Qualitative solubility/crystallisation tests on 15 mg scale; assay type: physicochemical
[4] = Isomeric interconversion in dose formulations (HPLC); assay type: physicochemical; details: oral (Labrasol:water 1:1) and intravenous (NP3S) dose formulations, pre- and post-dose
Description: as §1

[5] = tested on: spontaneous uterine contractions; assay: Inhibition of spontaneous uterine contractions in anesthetized late-term pregnant rat; assay type: in vivo; details: oral, 10, 30 or 60 mg/kg; at any time during the 170-180 minutes observation
Description: Late-term pregnant (certified at days 19-21 of pregnancy) Sprague Dawley CD (SD) BR female rats (Charles River, Calco, Italy), weighing 350-400 g were anesthetized with urethane (1.05 g/kg, i.p.) and placed on a homeothermic operating table. A midline incision at the hypogastrium level was made, one pregnant uterine horn exposed and its tubal end (near the ovary) was closed by a ligature with surgical silk. […] After the surgical preparation, a 30-min stabilization period was observed and then the effects of increasing doses of compounds of the present invention (given as 10-min i.v. infusion, bolus i.v. or p.o.) were evaluated by measuring the resulting uterine contractions. For the i.v. administration (infusion or bolus) the uterine contractile activity was quantified by calculating the AUC during the 10-min injection period. The percent variation of the AUC values relative to the spontaneous uterine response observed after each compound administration was calculated in comparison to the value recorded before the first dose-administration (basal value). The effect of test compounds of the present invention was evaluated by comparing pre- and post-treatment luminal uterine pressure values. […] Statistical differences between treatment groups at each time-point were determined by using one-way ANOVA followed by Tukey test. […]

Chain of vasopressin V1a receptor (P37288 whole entry, species assumed): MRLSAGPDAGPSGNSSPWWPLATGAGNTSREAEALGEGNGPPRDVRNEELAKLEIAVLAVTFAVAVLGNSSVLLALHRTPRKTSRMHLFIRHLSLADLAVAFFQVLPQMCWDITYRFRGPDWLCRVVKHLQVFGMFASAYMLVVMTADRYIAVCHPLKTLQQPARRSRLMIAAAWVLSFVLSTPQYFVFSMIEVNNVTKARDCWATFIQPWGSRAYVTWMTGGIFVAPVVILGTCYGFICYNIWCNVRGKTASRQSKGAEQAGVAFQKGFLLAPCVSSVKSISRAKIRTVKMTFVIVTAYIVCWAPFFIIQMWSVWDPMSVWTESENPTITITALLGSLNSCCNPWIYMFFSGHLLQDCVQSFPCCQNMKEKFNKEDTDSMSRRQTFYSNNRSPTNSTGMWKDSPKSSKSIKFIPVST

Compound	Ki [1] [nM]	[14C]-E-isomer present in plasma ([2]; 30 mg/kg oral or intravenous, plasma collected up to 6 hours)	isomeric interconversion in vivo ([2]; 30 mg/kg, after oral or intravenous dose administration)	Qualitative solubility, Dissolves in: ([3]; DIPE, hot) [vol hot]	Qualitative solubility, Dissolves in: ([3]; IPA, hot) [vol hot]	Qualitative solubility, Dissolves in: ([3]; MIBK, hot) [vol hot]	Qualitative solubility, Dissolves in: ([3]; THF, cold) [vol cold]	Qualitative solubility, Comment ([3]; heptanes)	Qualitative solubility, Dissolves in: ([3]; tBuOH, hot) [vol hot]	Qualitative solubility, Dissolves in: ([3]; toluene, cold) [vol cold]	interconversion to E-isomer during dose preparation or administration [4]	inhibition of uterine contraction [5]
CO/N=C1/C[C@@H](CO)N(C(=O)c2ccc(-c3ccccc3C)cc2)C1 [(3Z,5S)-5-(hydroxymethyl)-1-[(2′-methyl-1,1′-biphenyl-4-yl)carbonyl]pyrrolidin-3-one O-methyloxime]	120	no evidence	no detectable isomeric interconversion	40	4	4	4	insoluble in 20 vol	6	2	no detectable interconversion	
CO/N=C1\C[C@@H](CO)N(C(=O)c2ccc(-c3ccccc3C)cc2)C1 [(3E,5S)-5-(hydroxymethyl)-1-[(2′-methyl-1,1′-biphenyl-4-yl)carbonyl]pyrrolidin-3-one O-methyloxime]												no inhibition
